Results: ChEMBL document CHEMBL5444388, “Affinity Phenotypic Cellular Literature for EUbOPEN Chemogenomic Library” (2024)

What was measured:
Format in all cases: functional, cell-based
Design in all cases: recommended concentration 100 nM
[1] = molecular target: Centromere-associated protein E (Homo sapiens) (UniProt Q02224); assay: Affinity Phenotypic Cellular interaction: (Cell-growth inhibition assays (growth inhibitory effect colon cancer cell line 22Rv1)) EUB0000734a CENPE; details: CWR22R, Affinity Phenotypic Cellular Source Knowledge https://pubmed.ncbi.nlm.nih.gov/20167803/
Centromere-associated protein E (Homo sapiens), sequence (Q02224 whole entry): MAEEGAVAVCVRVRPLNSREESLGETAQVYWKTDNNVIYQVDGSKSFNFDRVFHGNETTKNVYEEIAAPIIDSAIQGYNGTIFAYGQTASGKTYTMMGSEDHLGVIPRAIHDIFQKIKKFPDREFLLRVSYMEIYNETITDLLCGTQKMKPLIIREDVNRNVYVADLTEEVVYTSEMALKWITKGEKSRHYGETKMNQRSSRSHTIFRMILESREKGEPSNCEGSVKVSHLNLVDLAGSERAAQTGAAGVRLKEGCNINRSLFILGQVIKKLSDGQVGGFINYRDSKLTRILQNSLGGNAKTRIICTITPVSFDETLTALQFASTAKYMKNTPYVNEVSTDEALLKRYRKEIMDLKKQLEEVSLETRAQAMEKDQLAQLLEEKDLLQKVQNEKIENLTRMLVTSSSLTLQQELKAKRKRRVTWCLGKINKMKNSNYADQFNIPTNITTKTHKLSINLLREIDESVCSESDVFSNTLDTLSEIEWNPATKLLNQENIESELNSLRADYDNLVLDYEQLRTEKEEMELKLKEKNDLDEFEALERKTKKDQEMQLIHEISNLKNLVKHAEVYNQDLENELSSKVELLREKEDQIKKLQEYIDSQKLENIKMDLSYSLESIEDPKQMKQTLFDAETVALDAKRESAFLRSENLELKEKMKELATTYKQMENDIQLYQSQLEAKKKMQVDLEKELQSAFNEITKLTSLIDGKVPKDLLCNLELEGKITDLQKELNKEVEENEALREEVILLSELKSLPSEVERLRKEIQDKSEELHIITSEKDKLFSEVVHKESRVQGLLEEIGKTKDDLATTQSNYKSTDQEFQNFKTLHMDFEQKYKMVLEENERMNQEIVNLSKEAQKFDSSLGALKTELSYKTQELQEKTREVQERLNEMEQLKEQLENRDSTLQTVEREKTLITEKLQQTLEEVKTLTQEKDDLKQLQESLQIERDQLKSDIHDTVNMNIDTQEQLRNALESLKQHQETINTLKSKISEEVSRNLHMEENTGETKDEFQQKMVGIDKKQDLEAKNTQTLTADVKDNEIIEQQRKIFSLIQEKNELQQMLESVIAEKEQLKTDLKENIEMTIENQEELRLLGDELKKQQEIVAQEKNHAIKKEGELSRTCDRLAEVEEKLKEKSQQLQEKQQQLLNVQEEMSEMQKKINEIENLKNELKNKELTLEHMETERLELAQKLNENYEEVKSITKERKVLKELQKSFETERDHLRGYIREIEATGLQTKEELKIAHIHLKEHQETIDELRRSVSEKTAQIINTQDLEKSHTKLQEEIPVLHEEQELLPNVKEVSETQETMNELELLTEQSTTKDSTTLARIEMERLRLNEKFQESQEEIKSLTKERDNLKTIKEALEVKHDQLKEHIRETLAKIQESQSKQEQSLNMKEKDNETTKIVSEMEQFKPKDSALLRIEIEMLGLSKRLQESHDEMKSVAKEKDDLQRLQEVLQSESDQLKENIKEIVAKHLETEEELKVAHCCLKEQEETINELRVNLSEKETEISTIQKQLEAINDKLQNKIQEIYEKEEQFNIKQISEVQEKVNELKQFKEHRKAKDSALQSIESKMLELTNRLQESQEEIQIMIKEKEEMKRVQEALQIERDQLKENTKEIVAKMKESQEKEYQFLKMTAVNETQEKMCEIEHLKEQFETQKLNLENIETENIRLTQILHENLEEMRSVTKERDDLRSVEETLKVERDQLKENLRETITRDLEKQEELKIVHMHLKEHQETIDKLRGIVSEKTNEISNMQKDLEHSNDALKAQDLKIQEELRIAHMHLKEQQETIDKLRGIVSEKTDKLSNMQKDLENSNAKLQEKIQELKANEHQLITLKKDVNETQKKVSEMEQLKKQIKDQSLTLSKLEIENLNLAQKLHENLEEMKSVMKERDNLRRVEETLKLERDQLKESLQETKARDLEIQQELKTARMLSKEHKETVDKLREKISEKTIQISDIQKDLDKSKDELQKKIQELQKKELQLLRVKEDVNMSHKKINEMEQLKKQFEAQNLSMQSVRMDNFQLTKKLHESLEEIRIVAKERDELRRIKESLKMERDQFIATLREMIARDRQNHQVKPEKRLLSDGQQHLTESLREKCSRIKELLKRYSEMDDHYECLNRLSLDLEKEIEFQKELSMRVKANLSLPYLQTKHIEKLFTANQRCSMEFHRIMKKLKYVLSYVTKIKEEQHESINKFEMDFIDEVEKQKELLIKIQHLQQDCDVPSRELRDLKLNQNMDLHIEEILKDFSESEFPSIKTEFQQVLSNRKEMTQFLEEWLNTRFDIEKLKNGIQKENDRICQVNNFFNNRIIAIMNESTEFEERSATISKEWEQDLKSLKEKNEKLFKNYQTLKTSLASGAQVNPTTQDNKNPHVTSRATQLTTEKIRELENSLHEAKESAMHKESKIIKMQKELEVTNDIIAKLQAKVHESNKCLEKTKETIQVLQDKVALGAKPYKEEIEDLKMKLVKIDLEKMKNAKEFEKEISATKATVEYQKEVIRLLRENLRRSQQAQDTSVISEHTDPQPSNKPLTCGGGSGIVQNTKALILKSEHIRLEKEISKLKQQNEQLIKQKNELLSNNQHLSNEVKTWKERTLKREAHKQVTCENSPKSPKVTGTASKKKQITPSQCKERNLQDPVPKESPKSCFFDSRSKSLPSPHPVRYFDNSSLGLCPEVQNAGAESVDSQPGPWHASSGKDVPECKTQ

[2] = molecular target: Centromere-associated protein E (Homo sapiens) (UniProt Q02224); assay: Affinity Phenotypic Cellular interaction: (Cell-growth inhibition assays (growth inhibitory effect colon cancer cell line A2780)) EUB0000734a CENPE; details: Affinity Phenotypic Cellular Source Knowledge https://pubmed.ncbi.nlm.nih.gov/20167803/
[3] = molecular target: Centromere-associated protein E (Homo sapiens) (UniProt Q02224); assay: Affinity Phenotypic Cellular interaction: (Cell-growth inhibition assays (growth inhibitory effect colon cancer cell line BC-3)) EUB0000734a CENPE; details: Affinity Phenotypic Cellular Source Knowledge https://pubmed.ncbi.nlm.nih.gov/20167803/
[4] = molecular target: Centromere-associated protein E (Homo sapiens) (UniProt Q02224); assay: Affinity Phenotypic Cellular interaction: (Cell-growth inhibition assays (growth inhibitory effect colon cancer cell line Caki-2)) EUB0000734a CENPE; details: Affinity Phenotypic Cellular Source Knowledge https://pubmed.ncbi.nlm.nih.gov/20167803/
[5] = molecular target: Centromere-associated protein E (Homo sapiens) (UniProt Q02224); assay: Affinity Phenotypic Cellular interaction: (Cell-growth inhibition assays (growth inhibitory effect colon cancer cell line CML-T1)) EUB0000734a CENPE; details: Affinity Phenotypic Cellular Source Knowledge https://pubmed.ncbi.nlm.nih.gov/20167803/
[6] = molecular target: Centromere-associated protein E (Homo sapiens) (UniProt Q02224); assay: Affinity Phenotypic Cellular interaction: (Cell-growth inhibition assays (growth inhibitory effect colon cancer cell line COLO-320DM)) EUB0000734a CENPE; details: Affinity Phenotypic Cellular Source Knowledge https://pubmed.ncbi.nlm.nih.gov/20167803/
[7] = molecular target: Centromere-associated protein E (Homo sapiens) (UniProt Q02224); assay: Affinity Phenotypic Cellular interaction: (Cell-growth inhibition assays (growth inhibitory effect colon cancer cell line DB)) EUB0000734a CENPE; details: Affinity Phenotypic Cellular Source Knowledge https://pubmed.ncbi.nlm.nih.gov/20167803/
[8] = molecular target: Centromere-associated protein E (Homo sapiens) (UniProt Q02224); assay: Affinity Phenotypic Cellular interaction: (Cell-growth inhibition assays (growth inhibitory effect colon cancer cell line DLD-1)) EUB0000734a CENPE; details: Affinity Phenotypic Cellular Source Knowledge https://pubmed.ncbi.nlm.nih.gov/20167803/
[9] = molecular target: Centromere-associated protein E (Homo sapiens) (UniProt Q02224); assay: Affinity Phenotypic Cellular interaction: (Cell-growth inhibition assays (growth inhibitory effect colon cancer cell line H4)) EUB0000734a CENPE; details: Affinity Phenotypic Cellular Source Knowledge https://pubmed.ncbi.nlm.nih.gov/20167803/
[10] = molecular target: Centromere-associated protein E (Homo sapiens) (UniProt Q02224); assay: Affinity Phenotypic Cellular interaction: (Cell-growth inhibition assays (growth inhibitory effect colon cancer cell line HCT-15)) EUB0000734a CENPE; details: Affinity Phenotypic Cellular Source Knowledge https://pubmed.ncbi.nlm.nih.gov/20167803/
[11] = molecular target: Centromere-associated protein E (Homo sapiens) (UniProt Q02224); assay: Affinity Phenotypic Cellular interaction: (Cell-growth inhibition assays (growth inhibitory effect colon cancer cell line NCI/ADR-RES)) EUB0000734a CENPE; details: Affinity Phenotypic Cellular Source Knowledge https://pubmed.ncbi.nlm.nih.gov/20167803/
[12] = molecular target: Centromere-associated protein E (Homo sapiens) (UniProt Q02224); assay: Affinity Phenotypic Cellular interaction: (Cell-growth inhibition assays (growth inhibitory effect colon cancer cell line NCI-H2171)) EUB0000734a CENPE; details: Affinity Phenotypic Cellular Source Knowledge https://pubmed.ncbi.nlm.nih.gov/20167803/
[13] = molecular target: Centromere-associated protein E (Homo sapiens) (UniProt Q02224); assay: Affinity Phenotypic Cellular interaction: (Cell-growth inhibition assays (growth inhibitory effect colon cancer cell line RL)) EUB0000734a CENPE; details: Affinity Phenotypic Cellular Source Knowledge https://pubmed.ncbi.nlm.nih.gov/20167803/
[14] = molecular target: Centromere-associated protein E (Homo sapiens) (UniProt Q02224); assay: Affinity Phenotypic Cellular interaction: (Cell-growth inhibition assays (growth inhibitory effect colon cancer cell line RXF393)) EUB0000734a CENPE; details: RXF 393, Affinity Phenotypic Cellular Source Knowledge https://pubmed.ncbi.nlm.nih.gov/20167803/
[15] = molecular target: Centromere-associated protein E (Homo sapiens) (UniProt Q02224); assay: Affinity Phenotypic Cellular interaction: (Cell-growth inhibition assays (growth inhibitory effect colon cancer cell line SCC-4)) EUB0000734a CENPE; details: Affinity Phenotypic Cellular Source Knowledge https://pubmed.ncbi.nlm.nih.gov/20167803/
[16] = molecular target: Centromere-associated protein E (Homo sapiens) (UniProt Q02224); assay: Affinity Phenotypic Cellular interaction: (Cell-growth inhibition assays (growth inhibitory effect colon cancer cell line SF-268)) EUB0000734a CENPE; details: Affinity Phenotypic Cellular Source Knowledge https://pubmed.ncbi.nlm.nih.gov/20167803/
[17] = molecular target: Centromere-associated protein E (Homo sapiens) (UniProt Q02224); assay: Affinity Phenotypic Cellular interaction: (Cell-growth inhibition assays (growth inhibitory effect colon cancer cell line SF-295)) EUB0000734a CENPE; details: Affinity Phenotypic Cellular Source Knowledge https://pubmed.ncbi.nlm.nih.gov/20167803/
[18] = molecular target: Centromere-associated protein E (Homo sapiens) (UniProt Q02224); assay: Affinity Phenotypic Cellular interaction: (Cell-growth inhibition assays (growth inhibitory effect colon cancer cell line SNB-19)) EUB0000734a CENPE; details: Affinity Phenotypic Cellular Source Knowledge https://pubmed.ncbi.nlm.nih.gov/20167803/
[19] = molecular target: Centromere-associated protein E (Homo sapiens) (UniProt Q02224); assay: Affinity Phenotypic Cellular interaction: (Cell-growth inhibition assays (growth inhibitory effect colon cancer cell line SNU-449)) EUB0000734a CENPE; details: Affinity Phenotypic Cellular Source Knowledge https://pubmed.ncbi.nlm.nih.gov/20167803/
[20] = molecular target: Centromere-associated protein E (Homo sapiens) (UniProt Q02224); assay: Affinity Phenotypic Cellular interaction: (Cell-growth inhibition assays (growth inhibitory effect colon cancer cell line SW1088)) EUB0000734a CENPE; details: Affinity Phenotypic Cellular Source Knowledge https://pubmed.ncbi.nlm.nih.gov/20167803/
[21] = molecular target: Centromere-associated protein E (Homo sapiens) (UniProt Q02224); assay: Affinity Phenotypic Cellular interaction: (Cell-growth inhibition assays (growth inhibitory effect colon cancer cell line SW1990)) EUB0000734a CENPE; details: Affinity Phenotypic Cellular Source Knowledge https://pubmed.ncbi.nlm.nih.gov/20167803/
[22] = molecular target: Centromere-associated protein E (Homo sapiens) (UniProt Q02224); assay: Affinity Phenotypic Cellular interaction: (Cell-growth inhibition assays (growth inhibitory effect colon cancer cell line SW756)) EUB0000734a CENPE; details: Affinity Phenotypic Cellular Source Knowledge https://pubmed.ncbi.nlm.nih.gov/20167803/
[23] = molecular target: Centromere-associated protein E (Homo sapiens) (UniProt Q02224); assay: Affinity Phenotypic Cellular interaction: (Cell-growth inhibition assays (growth inhibitory effect colon cancer cell line T24)) EUB0000734a CENPE; details: T-24, Affinity Phenotypic Cellular Source Knowledge https://pubmed.ncbi.nlm.nih.gov/20167803/
[24] = molecular target: Centromere-associated protein E (Homo sapiens) (UniProt Q02224); assay: Affinity Phenotypic Cellular interaction: (Cell-growth inhibition assays (growth inhibitory effect colon cancer cell line UACC-257)) EUB0000734a CENPE; details: Affinity Phenotypic Cellular Source Knowledge https://pubmed.ncbi.nlm.nih.gov/20167803/

GIC50 [1]: 29 nM
GIC50 [2]: 13 nM
GIC50 [3]: 88 nM
GIC50 [4]: 25 nM
GIC50 [5]: 13 nM
GIC50 [6]: 306 nM
GIC50 [7]: 21 nM
GIC50 [8]: 60 nM
GIC50 [9]: 31 nM
GIC50 [10]: 151 nM
GIC50 [11]: 3.96 µM
GIC50 [12]: 24 nM
GIC50 [13]: 37 nM
GIC50 [14]: 32 nM
GIC50 [15]: 28 nM
GIC50 [16]: 26 nM
GIC50 [17]: 35 nM
GIC50 [18]: 28 nM
GIC50 [19]: 236 nM
GIC50 [20]: 32 nM
GIC50 [21]: 127 nM
GIC50 [22]: 35 nM
GIC50 [23]: 45 nM
GIC50 [24]: 32 nM
SMILES: CC(C)Oc1ccc(C(=O)N[C@H](CNC(=O)CN(C)C)Cc2ccc(-c3cn4cccc([C@H](C)O)c4n3)cc2)cc1Cl
